Assay results as given in ChEMBL document CHEMBL3885881, “DrugMatrix”.

Species: Rattus norvegicus
Experiment: DrugMatrix - Regimen: Daily Repeat
Assay type: toxicity, organism-based, Sprague-Dawley
Set-up: regimen Daily Repeat, gender Male, age 6-8 weeks
Conditions: in vivo, po, route oral GAVAGE, vehicle 100 % WATER; for ABSOLUTE BASOPHIL / ABSOLUTE EOSINOPHIL / ABSOLUTE LYMPHOCYTE / ABSOLUTE MONOCYTE / ABSOLUTE SEGMENTED NEUTROPHIL / BASOPHIL / EOSINOPHIL / ERYTHROCYTE COUNT / HEMATOCRIT / HEMOGLOBIN / LEUKOCYTE COUNT / LYMPHOCYTE / MEAN CORPUSCULAR HEMOGLOBIN / MEAN CORPUSCULAR HEMOGLOBIN CONCENTRATION / MEAN CORPUSCULAR VOLUME / MONOCYTE / NEUTROPHIL / NUCLEATED RED BLOOD CELLS / PLATELET COUNT: tissue Blood; for ALANINE AMINOTRANSFERASE / ALBUMIN / ALKALINE PHOSPHATASE / ASPARTATE AMINOTRANSFERASE / BLOOD UREA NITROGEN / CARBON DIOXIDE / CHLORIDE / CHOLESTEROL / CREATINE PHOSPHOKINASE / CREATININE / GLUCOSE / LACTATE DEHYDROGENASE / LIPASE / PHOSPHORUS / POTASSIUM / SODIUM / TOTAL BILIRUBIN / TOTAL PROTEIN / URIC ACID: tissue Plasma
[1] = 0 mg/kg, 72 h, dose level Control, time 3 day
[2] = 0 mg/kg, 120 h, dose level Control, time 5 day
[3] = 10 mg/kg, 72 h, dose level Low, time 3 day

`CCN(CC)CC#CCOC(=O)C(O)(c1ccccc1)C1CCCCC1` (centres undefined) [OXYBUTYNIN] was tested, and the “ABSOLUTE BASOPHIL” value [1] was 0 CELLS/uL, the “ABSOLUTE EOSINOPHIL” value [1] was 24 CELLS/uL and the “ABSOLUTE LYMPHOCYTE” value [1] was 13105 CELLS/uL. The “ABSOLUTE MONOCYTE” value [1] was 76 CELLS/uL, the “ABSOLUTE SEGMENTED NEUTROPHIL” value [1] was 2145 CELLS/uL and the BASOPHIL [1] was 0%. For the same compound, the EOSINOPHIL [1] was 0.17%, the “ERYTHROCYTE COUNT” value [1] was 5.81 x10E6/uL and the HEMATOCRIT [1] was 35.6%. For the same compound, the HEMOGLOBIN [1] was 13.72 G/DL, the “LEUKOCYTE COUNT” value [1] was 15.35 x10E3/uL and the LYMPHOCYTE [1] was 85.5%. For the same compound, the “MEAN CORPUSCULAR HEMOGLOBIN” value [1] was 23.62 pg, the “MEAN CORPUSCULAR HEMOGLOBIN CONCENTRATION” value [1] was 38.55 G/DL and the “MEAN CORPUSCULAR VOLUME” value [1] was 61.23 fL. The MONOCYTE [1] was 0.5%, the NEUTROPHIL [1] was 13.83% and the “NUCLEATED RED BLOOD CELLS” value [1] was 0 /100WBC. The “PLATELET COUNT” value [1] was 1189.83 x10E3/uL, the “ALANINE AMINOTRANSFERASE” value [1] was 48.67 u/L and the ALBUMIN [1] was 4.27 G/DL. For the same compound, the “ALKALINE PHOSPHATASE” value [1] was 335 u/L, the “ASPARTATE AMINOTRANSFERASE” value [1] was 86.5 u/L and the “BLOOD UREA NITROGEN” value [1] was 14.33 mg/dL. The “CARBON DIOXIDE” value [1] was 29.17 mmol/L, the CHLORIDE [1] was 99.83 MEQ/L and the CHOLESTEROL [1] was 71.83 mg/dL. The “CREATINE PHOSPHOKINASE” value [1] was 506.83 u/L, the CREATININE [1] was 0.18 mg/dL and the GLUCOSE [1] was 162.17 mg/dL. The “LACTATE DEHYDROGENASE” value [1] was 264.5 u/L, the LIPASE [1] was 9.67 u/L and the PHOSPHORUS [1] was 11.92 mg/dL. For the same compound, the POTASSIUM [1] was 6.55 MEQ/L, the SODIUM [1] was 141.53 MEQ/L and the “TOTAL BILIRUBIN” value [1] was 0.18 mg/dL. The “TOTAL PROTEIN” value [1] was 5.87 G/DL, the “URIC ACID” value [1] was 1.67 mg/dL and the “ABSOLUTE BASOPHIL” value [2] was 0 CELLS/uL. The “ABSOLUTE EOSINOPHIL” value [2] was 25.33 CELLS/uL, the “ABSOLUTE LYMPHOCYTE” value [2] was 15680 CELLS/uL and the “ABSOLUTE MONOCYTE” value [2] was 92.33 CELLS/uL. For the same compound, the “ABSOLUTE SEGMENTED NEUTROPHIL” value [2] was 2102.33 CELLS/uL, the BASOPHIL [2] was 0% and the EOSINOPHIL [2] was 0.17%. The “ERYTHROCYTE COUNT” value [2] was 6 x10E6/uL, the HEMATOCRIT [2] was 35.55% and the HEMOGLOBIN [2] was 14.12 G/DL. The “LEUKOCYTE COUNT” value [2] was 17.9 x10E3/uL, the LYMPHOCYTE [2] was 87.33% and the “MEAN CORPUSCULAR HEMOGLOBIN” value [2] was 23.65 pg. The “MEAN CORPUSCULAR HEMOGLOBIN CONCENTRATION” value [2] was 39.77 G/DL, the “MEAN CORPUSCULAR VOLUME” value [2] was 59.52 fL and the MONOCYTE [2] was 0.5%. For the same compound, the NEUTROPHIL [2] was 12%, the “NUCLEATED RED BLOOD CELLS” value [2] was 0.17 /100WBC and the “PLATELET COUNT” value [2] was 1325.67 x10E3/uL. For the same compound, the “ALANINE AMINOTRANSFERASE” value [2] was 56.17 u/L, the ALBUMIN [2] was 4.23 G/DL and the “ALKALINE PHOSPHATASE” value [2] was 371.5 u/L. For the same compound, the “ASPARTATE AMINOTRANSFERASE” value [2] was 91 u/L, the “BLOOD UREA NITROGEN” value [2] was 15.33 mg/dL and the “CARBON DIOXIDE” value [2] was 27.67 mmol/L. The CHLORIDE [2] was 99.5 MEQ/L, the CHOLESTEROL [2] was 66.5 mg/dL and the “CREATINE PHOSPHOKINASE” value [2] was 518.5 u/L. For the same compound, the CREATININE [2] was 0.18 mg/dL, the GLUCOSE [2] was 143.33 mg/dL and the “LACTATE DEHYDROGENASE” value [2] was 238.83 u/L. The LIPASE [2] was 9.33 u/L, the PHOSPHORUS [2] was 10.68 mg/dL and the POTASSIUM [2] was 6.5 MEQ/L. The SODIUM [2] was 141.88 MEQ/L, the “TOTAL BILIRUBIN” value [2] was 0.18 mg/dL and the “TOTAL PROTEIN” value [2] was 6 G/DL. The “URIC ACID” value [2] was 1.63 mg/dL, the “ABSOLUTE BASOPHIL” value [3] was 0 CELLS/uL and the “ABSOLUTE EOSINOPHIL” value [3] was 0 CELLS/uL. For the same compound, the “ABSOLUTE LYMPHOCYTE” value [3] was 11373.67 CELLS/uL, the “ABSOLUTE MONOCYTE” value [3] was 168.67 CELLS/uL and the “ABSOLUTE SEGMENTED NEUTROPHIL” value [3] was 2324.33 CELLS/uL. The BASOPHIL [3] was 0%, the EOSINOPHIL [3] was 0% and the “ERYTHROCYTE COUNT” value [3] was 5.85 x10E6/uL. For the same compound, the HEMATOCRIT [3] was 35.5%, the HEMOGLOBIN [3] was 13.87 G/DL and the “LEUKOCYTE COUNT” value [3] was 13.87 x10E3/uL. For the same compound, the LYMPHOCYTE [3] was 82.33%, the “MEAN CORPUSCULAR HEMOGLOBIN” value [3] was 23.77 pg and the “MEAN CORPUSCULAR HEMOGLOBIN CONCENTRATION” value [3] was 39.1 G/DL. For the same compound, the “MEAN CORPUSCULAR VOLUME” value [3] was 60.83 fL, the MONOCYTE [3] was 1.33% and the NEUTROPHIL [3] was 16.33%. The “NUCLEATED RED BLOOD CELLS” value [3] was 0 /100WBC, the “PLATELET COUNT” value [3] was 1157.33 x10E3/uL and the “ALANINE AMINOTRANSFERASE” value [3] was 50 u/L. For the same compound, the ALBUMIN [3] was 4.03 G/DL, the “ALKALINE PHOSPHATASE” value [3] was 314.33 u/L and the “ASPARTATE AMINOTRANSFERASE” value [3] was 86 u/L. The “BLOOD UREA NITROGEN” value [3] was 13.67 mg/dL, the “CARBON DIOXIDE” value [3] was 28.33 mmol/L and the CHLORIDE [3] was 99.33 MEQ/L. The CHOLESTEROL [3] was 57.67 mg/dL, the “CREATINE PHOSPHOKINASE” value [3] was 426.33 u/L and the CREATININE [3] was 0.12 mg/dL. The GLUCOSE [3] was 150.67 mg/dL, the “LACTATE DEHYDROGENASE” value [3] was 120 u/L and the LIPASE [3] was 9 u/L. The PHOSPHORUS [3] was 12.43 mg/dL, the POTASSIUM [3] was 6.97 MEQ/L and the SODIUM [3] was 141.47 MEQ/L. For the same compound, the “TOTAL BILIRUBIN” value [3] was 0.17 mg/dL, the “TOTAL PROTEIN” value [3] was 5.57 G/DL and the “URIC ACID” value [3] was 1.97 mg/dL.
